Laboratory results from patent publication US20260274853A1, “BIFUNCTIONAL COMPOUNDS CONTAINING PYRIMIDINE DERIVATIVES FOR DEGRADING CYCLIN-DEPENDENT KINASE 2 VIA UBIQUITIN PROTEASOME PATHWAY” (NIKANG THERAPEUTICS, INC., priority 2022, published 2026).

Target: T1, CDK2 (Homo sapiens, UniProt P24941)
T1 construct: High-Throughput Measurement of Cellular Endogenous CDK2; endogenous in cells; host or cells: OVCAR3
Experiment: Inhibition of CDK2: phospho-Rb (S807/811) HTRF measurement in OVCAR3 cells
Type: cell-based
Conditions: 24 h compound treatment, read-out: pRb (nM), IC50 in pRB(S807/811) assay
Experimental: Phosphorylation of RB protein at S807/811 were measured using HTRF phospho-RB cellular kits (Cat #64RBS807PEG) from Cisbio.
On Day 1, OVCAR3 (dependent on CDK2) cells were seeded into 96-well tissue-culture treated plates at 20,000 cells/well in 200 μL and incubated overnight at 37° C. in CO2 atmosphere. On Day 2, the cells were treated with test compounds at concentrations from 0.3 to 10,000 nM using HP D300 digital dispenser. Twenty-four hours after compound treatment, cell culture media was removed by flicking the plate and tapping the plate against clean paper towel. Immediately 30 μL 1× lysis buffer was supplemented from the kit and the plate was incubated at room temperature on shaker for 30 min. After homogenization by pipetting up and down, 8 μL cell lysate from 96-well cell culture plate was transferred to 384-well small volume white detection plate. 2 μL premixed detection solution was added and the plate was covered with sealer. To prepare the detection solution, d2 conjugated-phospho-RB antibody and Eu-cryptate conjugated phosphor-RB antibody were diluted into detection buffer following manufacturer's instruction. Detection plates were incubated for 4 h at room temperature and read on ClarioStar (BMG Labtech) in TR-FRET mode (665 nM and 620 nM). The TR-FRET ratio (665 nM/620 nM) was plotted against the compound concentration and normalized to DMSO controls. Half maximal inhibition concentration (IC50) values are calculated with a four-parameter logistic fit using GraphPad Prism (version 8; La Jolla, CA).
In the table below, A indicates a IC50 of less than 0.1 μM; B indicates a IC50 of greater than or equal to 0.1 μM but less than 0.5 μM; C indicates a IC50 of greater than or equal to 0.5 μM but less than 1 μM; and D indicates a […] of greater than or equal to 1 μM but less than 10 μM.

Row | IC50 [nM] | Compound
1 | < 100 | Cn1nc(N2CCC(=O)NC2=O)c2ccc(C3CCN(Cc4cccc(S(=O)(=O)N5CC[C@H](Nc6ncc(C(F)(F)F)c(-c7cnn(CC(F)F)c7)n6)[C@H](F)C5)c4)CC3)cc21 (racemic) [Example 37]
2 | 100 to 500 | O=C1CCC(N2Cc3cc(N4CCC(CN5CCN(c6cccc(S(=O)(=O)N7CCC(Nc8ncc(C(F)(F)F)c(-c9cnn(CC(F)(F)F)c9)n8)CC7)c6)CC5)CC4)ccc3C2=O)C(=O)N1 (stereo not shown) [Example 45, 3-(1-oxo-5-(4-((4-(3-((4-((4-(1-(2,2,2-trifluoroethyl)-1H-pyrazol-4-yl)-5-(trifluoromethyl)pyrimidin-2-yl)-amino)-piperidin-1-yl)sulfonyl)-phenyl)piperazin-1-yl)methyl)-piperidin-1-yl)isoindolin-2-yl)-piperidine-2,6-dione]
3 | 100 to 500 | O=C1CCN(C2CCN(Cc3cccc(S(=O)(=O)N4CCC(Nc5ncc(C(F)(F)F)c(-c6cnn(CC(F)(F)F)c6)n5)CC4)c3)CC2)C(=O)N1 [Example 46]
4 | < 100 | O=C1CCC(Nc2ccc(N3CCN(Cc4cccc(S(=O)(=O)N5CCC(Nc6ncc(C(F)(F)F)c(-c7cnn(CC(F)(F)F)c7)n6)CC5)c4)CC3)cc2)C(=O)N1 (stereo not shown) [Example 53]
5 | 1000 to 10000 | Cn1nc(N2CCC(=O)NC2=O)c2ccc(C3CCN(Cc4cc(S(=O)(=O)N5CCC(Nc6ncc(C(F)(F)F)c(-c7cnn(CC(F)(F)F)c7)n6)CC5)ccc4C(F)(F)F)CC3(F)F)cc21 (stereo not shown) [Example 55]
6 | 100 to 500 | O=C1CCC(N2CCN(Cc3cccc(S(=O)(=O)N4CCC(Nc5ncc(C(F)(F)F)c(-c6cnn(CC(F)(F)F)c6)n5)CC4)c3)C3CC32)C(=O)N1 (stereo not shown) [Example 63, 3-(5-(3-((4-((4-(1-(2,2,2-trifluoro-ethyl)-1H-pyrazol-4-yl)-5-(trifluoromethyl)-pyrimidin-2-yl)amino)-piperidin-1-yl)-sulfonyl)benzyl)-2,5-diazabicyclo[4.1.0]-heptan-2-yl)-piperidine-2,6-dione]
7 | 1000 to 10000 | Cn1nc(N2CCC(=O)NC2=O)c2ccc(C3CCN(Cc4cccc(S(=O)(=O)N5CC[C@@H](Nc6ncc(C(F)(F)F)c(-c7cnn(CC(F)(F)F)c7)n6)[C@@H](F)C5)c4)CC3(F)F)cc21 (stereo partly drawn) [Example 66, 1-(6-(3,3-difluoro-1-(3-(((3S,4R)-3-fluoro-4-((4-(1-(2,2,2-trifluoroethyl)-1H-pyrazol-4-yl)-5-(trifluoromethyl)-pyrimidin-2-yl)amino)piperidin-1-yl)-sulfonyl)benzyl)piperidin-4-yl)-1-methyl-1H-indazol-3-yl)dihydro-pyrimidine-2,4(1H,3H)-dione]
8 | 100 to 500 | O=C1CCN(c2ccc(N3CCN(Cc4cccc(S(=O)(=O)N5CCC(Nc6ncc(C(F)(F)F)c(-c7cnn(-c8ccccc8F)c7)n6)CC5)c4)CC3)cc2)C(=O)N1 [Example 71, 1-(4-(4-(3-((4-((4-(1-(2-fluorophenyl)-1H-pyrazol-4-yl)-5-(trifluoromethyl)-pyrimidin-2-yl)amino)piperidin-1-yl)sulfonyl)benzyl)piperazin-1-yl)-phenyl)dihydropyrimidine-2,4(1H,3H)-dione]
9 | 100 to 500 | O=C1CCC(N2CCN(Cc3cccc(S(=O)(=O)N4CCC(Nc5ncc(C(F)(F)F)c(-c6cnn(CC(F)(F)F)c6)n5)CC4)c3)CC2)C(=O)N1 (stereo not shown) [Example 76, 3-(4-(3-((4-((4-(1-(2,2,2-trifluoro-ethyl)-1H-pyrazol-4-yl)-5-(trifluoromethyl)-pyrimidin-2-yl)amino)-piperidin-1-yl)-sulfonyl)benzyl)piperazin-1-yl)-piperidine-2,6-dione]
10 | 100 to 500 | O=C1CCN(C2CCCN(Cc3cccc(S(=O)(=O)N4CCC(Nc5ncc(C(F)(F)F)c(-c6cnn(CC(F)(F)F)c6)n5)CC4)c3)C2)C(=O)N1 (stereo not shown) [Example 80, 1-(1-(3-((4-((4-(1-(2,2,2-trifluoro-ethyl)-1H-pyrazol-4-yl)-5-(trifluoromethyl)-pyrimidin-2-yl)amino)-piperidin-1-yl)sulfonyl)benzyl)-piperidin-3-yl)dihydropyrimidine-2,4(1H,3H)-dione]
11 | 100 to 500 | Cn1nc(N2CCC(=O)NC2=O)c2ccc(N3CC4CCC(C3)N4Cc3cccc(S(=O)(=O)N4CC[C@H](Nc5ncc(C(F)(F)F)c(-c6cnn(CC(F)(F)F)c6)n5)[C@H](F)C4)c3)cc21 [Example 85, 1-(6-(8-(3-(((3R,4S)-3-fluoro-4-((4-(1-(2,2,2-trifluoroethyl)-1H-pyrazol-4-yl)-5-(trifluoromethyl)pyrimidin-2-yl)-amino)-piperidin-1-yl)sulfonyl)benzyl)-3,8-diazabicyclo[3.2.1]octan-3-yl)-1-methyl-1H-indazol-3-yl)dihydro-pyrimidine-2,4(1H,3H)-dione]
12 | 500 to 1000 | Cn1nc(N2CCC(=O)NC2=O)c2ccc(C3CCN(Cc4cccc(S(=O)(=O)N5CCC(Nc6ncc(C(F)(F)F)c(-c7cnn(CC(F)(F)F)c7)n6)CC5)c4C(F)(F)F)CC3)cc21 [Example 87, 1-(1-methyl-6-(1-(3-((4-((4-(1-(2,2,2-trifluoroethyl)-1H-pyrazol-4-yl)-5-(trifluoromethyl)pyrimidin-2-yl)-amino)-piperidin-1-yl)sulfonyl)-2-(trifluoro-methyl)benzyl)piperidin-4-yl)-1H-indazol-3-yl)dihydro-pyrimidine-2,4(1H,3H)-dione]
13 | 100 to 500 | Cn1nc(N2CCC(=O)NC2=O)c2ccc(C3CCN(C(c4cccc(S(=O)(=O)N5CCC(Nc6ncc(C(F)(F)F)c(-c7cnn(CC(F)(F)F)c7)n6)CC5)c4)C(F)(F)F)CC3)cc21 (stereo not shown) [Example 91, 1-(1-methyl-6-(1-(2,2,2-trifluoro-1-(3-((4-((4-(1-(2,2,2-trifluoroethyl)-1H-pyrazol-4-yl)-5-(trifluoromethyl)-pyrimidin-2-yl)amino)piperidin-1-yl)-sulfonyl)phenyl)ethyl)piperidin-4-yl)-1H-indazol-3-yl)dihydro-pyrimidine-2,4(1H,3H)-dione]
14 | 100 to 500 | Cn1nc(N2CCC(=O)NC2=O)c2ccc(C3CCN(CC4CCN(S(=O)(=O)[C@H]5CC[C@H](Nc6ncc(C(F)(F)F)c(-c7cnn(CC(F)(F)F)c7)n6)CC5)CC4)CC3)cc21 [Example 94, 1-(1-methyl-6-(1-((1-(((1r,4r)-4-((4-(1-(2,2,2-trifluoroethyl)-1H-pyrazol-4-yl)-5-(trifluoromethyl)pyrimidin-2-yl)-amino)cyclohexyl)sulfonyl)piperidin-4-yl)methyl)piperidin-4-yl)-1H-indazol-3-yl)dihydropyrimidine-2,4(1H,3H)-dione]
15 | 100 to 500 | Cn1nc(N2CCC(=O)NC2=O)c2ccc(C3CCN(CCc4cccc(S(=O)(=O)[C@H]5CC[C@H](Nc6ncc(C(F)(F)F)c(-c7cnn(CC(F)(F)F)c7)n6)CC5)c4)CC3)cc21 [Example 95, 1-(1-methyl-6-(1-(3-(((1r,4r)-4-((4-(1-(2,2,2-trifluoroethyl)-1H-pyrazol-4-yl)-5-(trifluoromethyl)pyrimidin-2-yl)-amino)-cyclohexyl)sulfonyl)phenethyl)piperidin-4-yl)-1H-indazol-3-yl)dihydro-pyrimidine-2,4(1H,3H)-dione]
16 | 100 to 500 | Cn1nc(N2CCC(=O)NC2=O)c2ccc(N3CCC(CN4CCN(S(=O)(=O)N5CCC(Nc6ncc(C(F)(F)F)c(-c7cnn(CC(F)(F)F)c7)n6)CC5)CC4)CC3)cc21 [Example 97, 1-(1-methyl-6-(4-((4-((4-((4-(1-(2,2,2-trifluoroethyl)-1H-pyrazol-4-yl)-5-(trifluoromethyl)pyrimidin-2-yl)amino)-piperidin-1-yl)sulfonyl)piperazin-1-yl)-methyl)piperidin-1-yl)-1H-indazol-3-yl)dihydropyrimidine-2,4(1H,3H)-dione]
